Test results from patent publication US20180360790A1, “NUTRITIONAL COMPOSITIONS AND INFANT FORMULAS TO PROMOTE MYELINATION IN THE BRAIN” (NESTEC S.A., priority 2015, published 2018).

System: brain myelination (myelin water fraction)
Assay: Cross-sectional correlation of infant formula nutrient composition with brain myelination (mcDESPOT MRI, general linear model)
Type: in vivo, infants and young children
Conditions: single GLM of quantified formula nutrients and child age vs myelin water fraction; children up to 5 years; 5 most frequently used formulas
Description: This technique provides a quantitative measure, the Myelin Water Fraction (MWF), which is a surrogate marker of myelin content. When mapped as a function of time across early childhood, myelination trajectories can be generated. Infant formula composition: six infant formulas fed to infants participating in study were analyzed for their composition/level of myelin-relevant nutrients. […] Infants included in this study were drawn from a larger longitudinal study of normal brain and behavioral development: the Brown university Assessment of Myelination and Behavior Across Maturation (BAMBAM). To focus on neurotypical development, children with known potential risk factors for learning, neurologic, or psychiatric disorders were specifically excluded during recruitment and enrollment. […] Each infant was scanned using the mcDESPOT (multicomponent Driven Equilibrium Single Pulse Observation of T1 and T2) white matter imaging technique Deoni et al. (Magn. Reson. Med. 2008, 60:1372-1387), which provides a quantitative measure of the myelin water fraction (MWF) at each imaging point throughout the brain. […] Mean values for each region were then determined for each child and used for subsequent developmental analysis and trajectory modeling.

Row | Substance | nutritional drivers for myelination indicated by the final model
1 | sphingomyelin | identified drivers
2 | Iron | identified drivers
